According to ChEMBL document CHEMBL1201862, “PubChem BioAssay data set” (2004):
Activity calls are given as the source filed them.

Legend:
[1] = target: T1, Rac GTPase-activating protein 1 (Homo sapiens, UniProt Q9H0H5); assay: MgcRacGAP GTPase-activating activity inhibitors, confirmation, biochemical, ADP Hunter fluorescence, primary and confirmatory (AID 624330); format: functional
T1 sequence (Q9H0H5 whole entry): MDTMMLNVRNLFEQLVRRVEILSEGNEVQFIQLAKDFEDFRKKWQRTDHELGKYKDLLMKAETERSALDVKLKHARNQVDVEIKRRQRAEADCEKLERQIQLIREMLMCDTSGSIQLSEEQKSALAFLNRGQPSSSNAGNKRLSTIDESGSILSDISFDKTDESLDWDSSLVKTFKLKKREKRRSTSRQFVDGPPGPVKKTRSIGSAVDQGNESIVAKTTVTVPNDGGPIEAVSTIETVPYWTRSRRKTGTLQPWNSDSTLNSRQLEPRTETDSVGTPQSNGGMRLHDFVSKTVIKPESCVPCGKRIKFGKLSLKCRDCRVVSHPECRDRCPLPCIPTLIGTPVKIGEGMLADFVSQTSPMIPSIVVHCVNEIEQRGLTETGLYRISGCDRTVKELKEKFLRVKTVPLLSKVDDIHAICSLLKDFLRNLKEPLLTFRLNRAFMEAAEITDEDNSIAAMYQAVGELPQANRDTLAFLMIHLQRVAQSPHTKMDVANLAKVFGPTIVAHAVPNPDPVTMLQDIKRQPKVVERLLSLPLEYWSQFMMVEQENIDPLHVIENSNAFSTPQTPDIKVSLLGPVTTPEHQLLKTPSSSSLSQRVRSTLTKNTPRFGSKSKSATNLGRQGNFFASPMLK

[2] = target: FAD-linked sulfhydryl oxidase ALR (Homo sapiens, UniProt P55789); assay: inhibitors of human ALR sulfhydryl oxidase, dose response, biochemical, H2O2 detection, luminescence, cherry-pick (AID 493248)
[3] = target: T2, Corticotropin-releasing factor receptor 2/Corticotropin-releasing factor-binding protein (Homo sapiens, UniProt P24387+Q13324); assay: activators of CRF receptor 2 with binding protein – uHTS hits, confirmation (AID 602473); format: functional; settings: read-out: EC50_Mean
T2 sequence (Q13324 whole entry): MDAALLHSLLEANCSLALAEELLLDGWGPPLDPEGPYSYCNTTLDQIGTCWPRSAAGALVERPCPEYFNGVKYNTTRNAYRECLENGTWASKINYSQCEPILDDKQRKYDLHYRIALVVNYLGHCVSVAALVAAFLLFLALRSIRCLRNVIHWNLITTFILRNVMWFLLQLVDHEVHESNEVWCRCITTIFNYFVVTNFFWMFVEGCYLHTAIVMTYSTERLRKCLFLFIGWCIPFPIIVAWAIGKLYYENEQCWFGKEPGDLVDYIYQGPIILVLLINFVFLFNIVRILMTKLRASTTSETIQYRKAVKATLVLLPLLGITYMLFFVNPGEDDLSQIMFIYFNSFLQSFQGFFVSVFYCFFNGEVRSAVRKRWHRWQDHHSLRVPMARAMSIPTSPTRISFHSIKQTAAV
T2 sequence (P24387 whole entry): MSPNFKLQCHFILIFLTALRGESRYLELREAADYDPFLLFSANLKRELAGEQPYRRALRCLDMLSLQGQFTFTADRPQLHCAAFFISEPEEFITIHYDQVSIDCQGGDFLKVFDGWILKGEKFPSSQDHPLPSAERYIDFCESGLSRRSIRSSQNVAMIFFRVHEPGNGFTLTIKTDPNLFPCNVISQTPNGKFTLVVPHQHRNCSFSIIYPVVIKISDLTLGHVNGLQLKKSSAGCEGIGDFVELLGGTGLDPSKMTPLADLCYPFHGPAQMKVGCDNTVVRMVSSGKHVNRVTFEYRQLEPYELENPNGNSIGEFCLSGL

[4] = target: T2, Corticotropin-releasing factor receptor 2/Corticotropin-releasing factor-binding protein; assay: Dose Response confirmation of uHTS hits for small molecule antagonists of the CRF-binding protein and CRF-R2 receptor complex.; format: functional; settings: read-out: IC50_Mean
Fatty acid synthase [5] = target: T3, Fatty acid synthase (Homo sapiens, UniProt P49327); assay: FAS thioesterase domain inhibitors, dose response, biochemical, kinetic fluorescence intensity (AID 624326); format: functional;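 further: rate of fluorescence rise from hydrolysis of a fluorogenic O-methyl fluorescein ester substrate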
Fatty acid synthase [6] = target: T3, Fatty acid synthase; assay: FAS thioesterase domain inhibitors, dose response, biochemical, endpoint fluorescence intensity, uHTS hits (AID 624327); format: functional;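 further: fluorescence from hydrolysis of an O-methyl fluorescein acyl ester substrate by the enzyme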
Streptococcus = assay: Group A Streptococcus viability loss, dose response, counter-screen for streptokinase expression inhibitor project, luminescence, BacTiterGlo (AID 1915); format: functional, organism-based;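 further: potency for reduction of bacterial viability or growth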
Streptokinase A = target: T4, Streptokinase A (Streptococcus pyogenes serotype M1, UniProt P10520); assay: S. pyogenes streptokinase expression inhibitors, potency, dose response, plasminogen activation absorbance, OD405 (AID 1914); format: functional, Streptococcus pyogenes M1 GAS;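 further: secreted streptokinase activity via plasminogen activation per viability signal from cell pellet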
T4 sequence (P10520 whole entry): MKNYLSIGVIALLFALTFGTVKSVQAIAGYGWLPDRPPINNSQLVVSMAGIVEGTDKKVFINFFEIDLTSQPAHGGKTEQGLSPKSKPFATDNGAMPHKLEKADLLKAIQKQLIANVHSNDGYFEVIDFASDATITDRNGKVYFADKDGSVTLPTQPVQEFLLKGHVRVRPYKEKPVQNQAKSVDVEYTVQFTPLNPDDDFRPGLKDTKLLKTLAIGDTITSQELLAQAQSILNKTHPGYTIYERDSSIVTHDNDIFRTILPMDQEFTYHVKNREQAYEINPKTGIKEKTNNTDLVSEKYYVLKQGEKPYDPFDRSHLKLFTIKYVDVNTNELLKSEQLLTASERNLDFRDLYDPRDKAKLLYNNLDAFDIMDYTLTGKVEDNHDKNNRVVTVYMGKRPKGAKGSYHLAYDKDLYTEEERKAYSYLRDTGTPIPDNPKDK

[7] = system: Streptococcus sp. 'group A'; assay: growth inhibition of control SK(-) GAS strain, dose response, counter-screen for streptokinase expression inhibitor project, luminescence, kanamycin, BacTiterGlo, confirmation (AID 1900); format: functional, organism-based
Large T antigen = Large T antigen (Simian virus 40, UniProt P03070); format: functional, Betapolyomavirus macacae;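 further: Confirmatory-stage PubChem screen for compounds that inhibit SV40 T antigen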
Cytochrome P450 1A2 = target: T5, Cytochrome P450 1A2 (Homo sapiens, UniProt P05177);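 further: PubChem cytochrome P450 panel assay, CYP1A2 panel member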
T5 sequence (P05177 whole entry): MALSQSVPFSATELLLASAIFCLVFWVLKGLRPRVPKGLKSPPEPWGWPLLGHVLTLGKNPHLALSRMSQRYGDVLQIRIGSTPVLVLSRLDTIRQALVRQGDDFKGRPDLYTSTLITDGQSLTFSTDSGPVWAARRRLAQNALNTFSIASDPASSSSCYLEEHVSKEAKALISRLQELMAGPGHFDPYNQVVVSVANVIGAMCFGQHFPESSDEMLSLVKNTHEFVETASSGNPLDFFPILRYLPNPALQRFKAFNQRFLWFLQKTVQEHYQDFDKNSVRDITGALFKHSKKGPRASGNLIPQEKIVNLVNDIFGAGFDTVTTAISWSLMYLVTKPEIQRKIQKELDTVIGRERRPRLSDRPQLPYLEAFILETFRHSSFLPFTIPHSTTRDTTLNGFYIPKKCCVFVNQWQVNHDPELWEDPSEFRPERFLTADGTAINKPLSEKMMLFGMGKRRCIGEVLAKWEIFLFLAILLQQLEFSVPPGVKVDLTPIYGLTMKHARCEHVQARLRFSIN

Cytochrome P450 3A4 = Cytochrome P450 3A4 (Homo sapiens, UniProt P08684);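 further: CYP3A4 tested as one member of a cytochrome P450 panel screen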
[8] = cytotoxicity toward DRD oncogenic fibroblasts, dose response, cell-based, non-viral oncogenic, luminescence (AID 1934); format: functional; settings: Homo sapiens
BJ [9] = assay: cytotoxicity toward BJ-TERT-LT-ST fibroblasts, dose response, cell-based, RAS-independent, luminescence (AID 1935); format: functional; settings: Homo sapiens;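 further: BJ fibroblasts immortalized with TERT plus LT and ST oncogenes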
BJ [10] = assay: cells; format: functional, cell-based; settings: Homo sapiens
BJ [11] = assay: cytotoxicity toward BJ-TERT fibroblasts, dose response, cell-based, RAS-independent, luminescence (AID 1933); format: functional; settings: Homo sapiens
[12] = HEp-2 cell cytotoxicity, dose response, cytotoxicity control for RSV inhibitor project, HTS (AID 2410); format: functional; settings: human respiratory syncytial virus

T3 sequence (P49327 whole entry, the tested form may be a part): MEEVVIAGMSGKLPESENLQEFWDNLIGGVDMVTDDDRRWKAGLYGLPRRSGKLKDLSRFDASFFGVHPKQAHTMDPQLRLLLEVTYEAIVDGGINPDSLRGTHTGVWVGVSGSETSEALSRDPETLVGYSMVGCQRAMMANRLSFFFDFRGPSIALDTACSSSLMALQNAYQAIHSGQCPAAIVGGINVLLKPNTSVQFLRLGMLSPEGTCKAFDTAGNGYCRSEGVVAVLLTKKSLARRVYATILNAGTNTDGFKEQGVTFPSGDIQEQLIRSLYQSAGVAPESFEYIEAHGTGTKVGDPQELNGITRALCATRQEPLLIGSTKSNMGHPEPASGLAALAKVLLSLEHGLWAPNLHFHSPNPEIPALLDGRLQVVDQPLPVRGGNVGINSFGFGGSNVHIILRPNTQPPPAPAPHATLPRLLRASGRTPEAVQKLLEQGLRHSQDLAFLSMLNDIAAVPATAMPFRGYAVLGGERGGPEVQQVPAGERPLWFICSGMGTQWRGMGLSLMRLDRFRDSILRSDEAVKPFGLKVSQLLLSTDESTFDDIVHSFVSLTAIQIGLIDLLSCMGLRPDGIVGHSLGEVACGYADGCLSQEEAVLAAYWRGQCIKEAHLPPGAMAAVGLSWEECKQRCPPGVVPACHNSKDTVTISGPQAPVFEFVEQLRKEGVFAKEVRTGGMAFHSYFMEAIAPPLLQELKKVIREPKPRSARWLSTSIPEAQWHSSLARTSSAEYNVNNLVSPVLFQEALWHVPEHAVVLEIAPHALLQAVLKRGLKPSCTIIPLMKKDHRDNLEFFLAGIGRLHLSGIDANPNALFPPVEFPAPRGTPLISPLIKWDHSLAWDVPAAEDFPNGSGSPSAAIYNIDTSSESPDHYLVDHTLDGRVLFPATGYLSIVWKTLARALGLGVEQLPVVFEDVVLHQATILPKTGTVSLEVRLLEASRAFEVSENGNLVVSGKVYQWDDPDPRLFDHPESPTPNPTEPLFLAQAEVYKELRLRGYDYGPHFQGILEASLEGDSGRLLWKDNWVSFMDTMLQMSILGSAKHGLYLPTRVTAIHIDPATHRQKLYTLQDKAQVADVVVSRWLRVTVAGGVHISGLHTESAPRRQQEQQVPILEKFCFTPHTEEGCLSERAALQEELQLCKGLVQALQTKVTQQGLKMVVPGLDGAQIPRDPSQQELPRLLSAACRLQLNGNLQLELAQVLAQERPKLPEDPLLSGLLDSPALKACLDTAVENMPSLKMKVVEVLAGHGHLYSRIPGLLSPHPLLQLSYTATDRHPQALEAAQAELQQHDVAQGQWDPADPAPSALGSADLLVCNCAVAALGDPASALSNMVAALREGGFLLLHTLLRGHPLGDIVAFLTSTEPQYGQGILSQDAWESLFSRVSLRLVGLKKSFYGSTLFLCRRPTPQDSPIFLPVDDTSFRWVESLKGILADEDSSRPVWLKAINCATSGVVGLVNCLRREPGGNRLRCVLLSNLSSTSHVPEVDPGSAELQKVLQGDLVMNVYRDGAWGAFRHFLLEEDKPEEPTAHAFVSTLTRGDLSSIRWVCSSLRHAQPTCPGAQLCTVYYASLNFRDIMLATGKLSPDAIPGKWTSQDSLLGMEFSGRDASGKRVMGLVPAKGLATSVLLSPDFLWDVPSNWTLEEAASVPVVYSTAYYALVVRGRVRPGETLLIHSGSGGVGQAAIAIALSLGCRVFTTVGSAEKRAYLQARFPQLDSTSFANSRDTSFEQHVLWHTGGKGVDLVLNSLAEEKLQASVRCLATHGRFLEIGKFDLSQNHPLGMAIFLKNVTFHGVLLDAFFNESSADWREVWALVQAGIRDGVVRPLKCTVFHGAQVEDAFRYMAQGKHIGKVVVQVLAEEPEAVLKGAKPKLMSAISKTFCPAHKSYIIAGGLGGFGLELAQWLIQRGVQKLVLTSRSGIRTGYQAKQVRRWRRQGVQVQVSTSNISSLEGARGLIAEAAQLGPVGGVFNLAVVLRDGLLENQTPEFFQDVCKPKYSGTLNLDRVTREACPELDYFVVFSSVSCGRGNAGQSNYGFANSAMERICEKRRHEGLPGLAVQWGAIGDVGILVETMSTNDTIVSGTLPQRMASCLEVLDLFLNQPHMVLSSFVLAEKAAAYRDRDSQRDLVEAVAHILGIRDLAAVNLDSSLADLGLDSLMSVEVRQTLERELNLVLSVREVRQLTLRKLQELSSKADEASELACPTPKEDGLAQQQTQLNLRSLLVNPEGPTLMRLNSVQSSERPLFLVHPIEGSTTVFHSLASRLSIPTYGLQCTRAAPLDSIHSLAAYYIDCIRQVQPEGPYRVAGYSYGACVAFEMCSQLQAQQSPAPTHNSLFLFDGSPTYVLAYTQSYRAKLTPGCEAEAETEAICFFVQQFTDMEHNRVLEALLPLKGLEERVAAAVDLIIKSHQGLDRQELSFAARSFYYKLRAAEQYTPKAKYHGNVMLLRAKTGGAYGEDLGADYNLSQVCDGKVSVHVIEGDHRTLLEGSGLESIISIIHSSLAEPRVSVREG
Sequence of FAD-linked sulfhydryl oxidase ALR (P55789 whole entry): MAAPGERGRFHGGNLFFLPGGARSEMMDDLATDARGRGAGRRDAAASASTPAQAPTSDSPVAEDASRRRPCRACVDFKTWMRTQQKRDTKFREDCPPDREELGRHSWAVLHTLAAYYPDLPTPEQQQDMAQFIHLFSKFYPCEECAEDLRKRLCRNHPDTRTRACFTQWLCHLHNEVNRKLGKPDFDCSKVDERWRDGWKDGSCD
Sequence of Large T antigen (P03070 whole entry): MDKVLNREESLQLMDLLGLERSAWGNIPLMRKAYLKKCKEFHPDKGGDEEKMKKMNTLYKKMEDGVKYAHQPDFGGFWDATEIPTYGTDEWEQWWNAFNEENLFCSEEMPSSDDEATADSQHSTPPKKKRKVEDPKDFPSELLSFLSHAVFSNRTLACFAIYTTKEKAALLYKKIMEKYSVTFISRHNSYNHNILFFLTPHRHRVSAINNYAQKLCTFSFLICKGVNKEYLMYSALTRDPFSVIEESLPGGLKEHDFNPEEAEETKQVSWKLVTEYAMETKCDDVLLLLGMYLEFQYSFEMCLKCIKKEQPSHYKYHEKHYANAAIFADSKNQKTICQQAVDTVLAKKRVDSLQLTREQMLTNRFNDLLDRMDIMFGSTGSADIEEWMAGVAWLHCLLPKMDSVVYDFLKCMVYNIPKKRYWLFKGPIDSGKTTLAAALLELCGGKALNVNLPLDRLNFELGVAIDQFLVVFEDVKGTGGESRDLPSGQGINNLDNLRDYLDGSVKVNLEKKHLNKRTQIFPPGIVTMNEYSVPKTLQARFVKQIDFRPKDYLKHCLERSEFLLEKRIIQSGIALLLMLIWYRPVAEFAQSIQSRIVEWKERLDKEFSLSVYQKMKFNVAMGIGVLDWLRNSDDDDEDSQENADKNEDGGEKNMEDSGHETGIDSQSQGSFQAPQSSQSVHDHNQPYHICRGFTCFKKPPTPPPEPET
Sequence of Cytochrome P450 3A4 (P08684 whole entry): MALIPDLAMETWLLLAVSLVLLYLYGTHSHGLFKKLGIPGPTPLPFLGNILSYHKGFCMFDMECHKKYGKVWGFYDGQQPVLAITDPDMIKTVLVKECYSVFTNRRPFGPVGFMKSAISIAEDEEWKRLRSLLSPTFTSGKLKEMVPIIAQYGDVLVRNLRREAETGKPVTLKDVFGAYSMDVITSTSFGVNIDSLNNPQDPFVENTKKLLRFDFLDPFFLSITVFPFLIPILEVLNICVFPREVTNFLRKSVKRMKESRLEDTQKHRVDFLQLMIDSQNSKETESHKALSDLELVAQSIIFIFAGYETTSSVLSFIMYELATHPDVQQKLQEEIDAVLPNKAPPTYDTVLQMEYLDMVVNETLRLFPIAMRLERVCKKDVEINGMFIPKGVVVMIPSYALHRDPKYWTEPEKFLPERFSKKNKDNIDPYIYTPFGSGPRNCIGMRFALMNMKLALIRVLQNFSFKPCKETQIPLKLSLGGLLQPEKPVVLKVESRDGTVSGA

With `C=CCn1c(SCC(=O)Nc2ccc(N(C)C)cc2)nnc1-c1cccc(C)c1` the IC50 [1] was 42.8 µM (active).

For `COc1ccc(-c2cc(-c3nnc(S)n3-c3ccccc3OC)[nH]n2)cc1`, the AC50 [2] was 41.1 µM (active).

With `CCCC(=O)NC(C)c1nc2ccccc2[nH]1` (centres undefined) the EC50 [3] was > 53 µM (inactive) and the IC50 [4] was > 47.1 µM (inactive).

In the case of `Cc1cc(C)n(CCC(=O)N=Nc2c(O)[nH]c3ccc(Br)cc23)n1`, the EC50 [3] is reported as > 53 µM (inactive) and the IC50 [4] is reported as > 47.1 µM (inactive).

With `O=C(c1[nH]nc2c1CCC2)N1CCCC(Nc2cccc(F)c2)C1` (centres undefined) the AC50 [2] was 19.5 µM (active).

In the case of `O=C(COc1cccc(Oc2ccccc2)c1)Nc1ccc(SC(F)F)cc1`, the IC50 (Fatty acid synthase [5]) is reported as 2.43 µM (active), the IC50 (Fatty acid synthase [6]) is reported as 4.12 µM (active) and the EC50 (Streptococcus) is reported as > 150 µM (not active). The EC50 (Streptokinase A) was 17.5 µM (active) and the EC50 [7] was 14.4 µM (active).

With `CCOc1ccc(CCNC(=O)c2cccc(NC3=NC4CS(=O)(=O)CC4S3)c2)cc1OCC` (centres undefined) the EC50 [3] was > 53 µM (inactive) and the IC50 [4] was > 47.1 µM (inactive).

With `COc1cc(OC)cc(C(=O)Nc2nc(CC(=O)NCc3ccccc3OC)cs2)c1` the EC50 (Streptococcus) was > 150 µM (not active), the EC50 (Streptokinase A) was > 150 µM (not active) and the EC50 [7] was > 150 µM (not active).

In the case of `C=CCN=C(S)Nc1ccc(N(C)C)cc1`, the IC50 (Large T antigen) is reported as 3.24 µM (active).

With `CSc1ccc(CN2CCC(N3CC(C)OC(C)C3)CC2)cc1` (centres undefined) the IC50 [1] was 72.4 µM (active).

For `COc1cc(N=Nc2c(C)n(C)n(-c3ccccc3)c2=O)ccc1N`, the IC50 [1] was 43.4 µM (active).

With `CSCC[C@H](NC(=O)c1nn(C)c(=O)c2ccccc12)c1nc2ccccc2[nH]1` the AC50 (Cytochrome P450 1A2) was 17.8 µM (inconclusive), the EC50 (Streptococcus) was 19.8 µM (active) and the AC50 (Cytochrome P450 3A4) was 12.6 µM (inconclusive). For the same molecule, the EC50 (Streptokinase A) was > 150 µM (not active) and the EC50 [7] was 1.06 µM (active).

In the case of `COC(=O)N1CCc2c(sc(NC(=O)C3=COCCO3)c2C#N)C1`, the EC50 [8] is reported as 12.5 µM (active), the EC50 (BJ [9]) is reported as 16.1 µM (active) and the EC50 (BJ [10]) is reported as 48.9 µM (active). The EC50 (BJ [11]) was 8.87 µM (inconclusive).

With `COc1cccc(-c2ncc3ccccn23)c1` the IC50 [1] was 136 µM (active) and the CC50 [12] was 44.1 µM (active).

For `CC1CN(Cc2nc3c(c(=O)[nH]c(=O)n3C)n2CCCc2ccccc2)CC(C)O1` (centres undefined), the EC50 (Streptococcus) was > 150 µM (not active), the EC50 (Streptokinase A) was > 150 µM (not active) and the EC50 [7] was > 150 µM (not active).
